Read-outs that look alike come from different tables or passages of the source. Primed or numbered codes have the meaning given here. Ends that are not written are not given here. * marks the point of attachment. Biotin = O=C1N[C@H]2[C@H](CS[C@H]2CCCCC(=O)*)N1; ttds″ = trioxatridecan-succinamic acid linker

The target in one test is SNX27 PDZ (Homo sapiens, UniProt Q96L92). As to the kind of experiment: Holdup assay. The test is classed as binding.
The target of the next test is SCRIB_1 PDZ (Homo sapiens, UniProt Q14160). Nature of the test: Holdup assay. The test is classed as binding.
The target of a further test is T1, SCRIB2 PDZ (Homo sapiens, UniProt Q14160).
T1 sequence (Q14160 862-950 limits assumed): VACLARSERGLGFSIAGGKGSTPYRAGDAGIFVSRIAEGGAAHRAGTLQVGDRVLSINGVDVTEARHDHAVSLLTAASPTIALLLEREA
As to the kind of experiment: Holdup assay. The test is classed as binding.

Another test has as its target T2, TX1BP3 PDZ (Homo sapiens, UniProt O14907).
T2 sequence (O14907 15-112 limits assumed): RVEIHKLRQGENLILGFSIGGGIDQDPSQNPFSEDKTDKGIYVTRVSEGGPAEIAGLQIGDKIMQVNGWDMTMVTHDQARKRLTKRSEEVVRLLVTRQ
As to the kind of experiment: Holdup assay. The class given is binding.

The target in a further test is DLG1_2 PDZ (Homo sapiens, UniProt Q12959). Nature of the test: Holdup assay. The class given is binding.
In test [1] the test system is LIN7C. As to the kind of experiment: PBM-AP-MS from Jurkat extract. The test is classed as binding, Homo sapiens. Conditions: Jurkat extract; prey LIN7C (Q9NUP9); PBM bait vs biotin control. On the procedure:
(§1) For PBM-AP-MS experiments, 30 μl streptavidin resin was mixed with biotin or peptide at 50–60 μM concentration in 6–6.5 resin volume for 60 min to achieve resin saturation. For PDZ-AP-MS experiments, 30 μl streptavidin resin was mixed with biotinylated MBP or MBP-PDZ at 40-50 μM concentration in >1000× resin volume for 60 min to achieve resin saturation. After saturation, resins were washed a single time (ten resin volume, holdup buffer), and were depleted with biotin (1 mM biotin, 5–10 resin volume, 10 min). Finally, resins were washed two times. 0.5 ml 2 mg/ml cell lysate was added to the dry resin (1 mg total input) and were incubated at 4 °C for 2 h. Then, the beads were washed three times with 10 resin volume buffer containing: 50 mM TRIS pH 8.5, 150 mM NaCl, 1% TritonX-100, 10× complete EDTA-free protease inhibitor cocktail, 2 mM EDTA, 1 mM TCEP. Then, the beads were washed two times with ten resin volume buffer containing: 50 mM TRIS pH 8.5, 150 mM NaCl, 1 mM TCEP. Finally, captured protein was eluted from the resin in two steps and the eluted fractions were pooled. For each elution the beads were incubated for 30 min with three resin volume buffer containing: 20 mM TRIS pH8.5, 100 mM NaCl, 500 μM TCEP, 8 M Urea. Between each step, the beads were separated by mild centrifugation and the supernatant was removed by gentle pipetting.
(§2) Proteins were identified by database searching using SequestHT (Thermo Fisher Scientific) with Proteome Discoverer 2.4 software (PD2.4, Thermo Fisher Scientific) on human FASTA database downloaded from SwissProt (reviewed, release 2020_11_27, 20304 entries, https://www.uniprot.org/). Precursor and fragment mass tolerances were set at 7 ppm and 0.6 Da respectively, and up to two missed cleavages were allowed. Oxidation (M, +15.995 Da) was set as variable modification, and Carbamidomethylation (C, +57.021 Da) as fixed modification. Peptides and proteins were filtered with a false discovery rate at 1%. Label-free quantification was based on the extracted ion chromatography intensity of the peptides. All samples were measured in technical triplicates. The measured extracted ion chromatogram (XIC) intensities were normalized based on median intensities of the entire dataset to correct minor loading differences. For statistical tests and enrichment calculations, not detectable intensity values were treated with an imputation method, where the missing values were replaced by random values similar to the 10% of the lowest intensity values present in the entire dataset. Unpaired two-tailed T-test, assuming equal variance, were performed on obtained log2 XIC intensities. The detection threshold for enriched proteins in AP-MS experiments were analyzed above twofold enrichment with <0.01 P value. Then, proteins with PDZ-domains or PBMs were extracted from the list of enriched proteins. In case only a specific isoform of the detected protein contains a PBM, the identified peptide fragments were manually checked to check which isoform(s) were most likely detected. All raw LC-MS/MS data (from 165 runs) have been deposited to the ProteomeXchange via the PRIDE database with identifier PXD027743.

The subject of another test is MAGI1. As to the kind of experiment: PBM-AP-MS from Jurkat extract. The class given is binding, Homo sapiens. To be noted: Jurkat extract; prey MAGI1 (Q96QZ7); PBM bait vs biotin control. The method, then: as §1, §2
The subject of the next test is DLG1. Nature of the test: PBM-AP-MS from Jurkat extract. The class given is binding, Homo sapiens. To be noted: Jurkat extract; prey DLG1 (Q12959); PBM bait vs biotin control. The method, then:
as §1, §2

Test [2] relates to SCRIB. Nature of the test: PBM-AP-MS from Jurkat extract. The test is classed as binding, Homo sapiens. Conditions: Jurkat extract; prey SCRIB (Q14160); PBM bait vs biotin control. The method, then:
as §1, §2

For another test, the system named is LGALS7. Nature of the test: PBM-AP-MS from Jurkat extract. The class given is binding, Homo sapiens. To be noted: prey LGALS7 (P47929), PBM bait vs biotin control. From the text:
Supplement 41467_2022_33018_MOESM5_ESM.xlsx, sheet "Jurkat HPV82-E6" | column: -LOG(P-Value); Difference log2; Ratio HPV82/biot

The test system of test [3] is SCRIB. As to the kind of experiment: PBM-AP-MS from HeLa extract. The test is classed as binding, Homo sapiens. Conditions: prey SCRIB (Q14160), PBM bait vs biotin control.
The subject of a further test is CPVL. Nature of the test: PBM-AP-MS from HeLa extract. Conditions: prey CPVL (Q9H3G5), PBM bait vs biotin control. The test is classed as binding, Homo sapiens.
The next test concerns KRT83. Nature of the test: PBM-AP-MS from HeLa extract. The test is classed as binding, Homo sapiens. To be noted: prey KRT83 (P78385), PBM bait vs biotin control. From the text: (§3) Supplement 41467_2022_33018_MOESM5_ESM.xlsx, sheet "HeLa HPV82-E6" | column: -LOG(P-Value); Difference log2; Ratio HPV82E6/Biot
Another test has as its system MPP7. As to the kind of experiment: PBM-AP-MS from HeLa extract. The class given is binding, Homo sapiens. To be noted: prey MPP7 (Q5T2T1), PBM bait vs biotin control.
Description: as §3

Test [4] concerns LIN7C. Nature of the test: PBM-AP-MS from HeLa extract. The class given is binding, Homo sapiens. Conditions: prey LIN7C (Q9NUP9), PBM bait vs biotin control.
The target in a further test is DLG1_1 PDZ (Homo sapiens, UniProt Q12959). Nature of the test: Holdup assay. The test is classed as binding.
Setting [5] is: PBM motif of the named protein vs SCRIB_1 PDZ, read-out: pKd values – domain-motif, SCRIB_1 (converted).
The mark [6] stands for this setting: PBM motif of the named protein vs SCRIB_2 PDZ, read-out: pKd values – domain-motif, SCRIB_2 (converted).
The mark [7] stands for this setting: PBM motif of the named protein vs TX1BP3 PDZ, read-out: pKd values – domain-motif, TX1BP3 (converted).
Where [8] appears, read: holdup affinity of the PBM peptide of the named protein, sheet PBMcomplexome, lower sub-table.
Setting [9] is: holdup affinity of the PBM peptide of the named protein, sheet PBMcomplexome, lower sub-table, 3.5 appears to be the floor for no detectable binding, read-out: affinity of PBM to SCRIB_1 (pKd) (converted).
The mark [10] stands for this setting: holdup affinity of the PBM peptide of the named protein, sheet PBMcomplexome, lower sub-table, 3.5 appears to be the floor for no detectable binding, read-out: affinity of PBM to DLG1_2 (pKd) (converted).
The mark [11] stands for this setting: holdup affinity of the PBM peptide of the named protein, sheet PBMcomplexome, lower sub-table, 3.5 appears to be the floor for no detectable binding, read-out: affinity of PBM to SCRIB_2 (pKd) (converted).
Setting [12] is: holdup affinity of the PBM peptide of the named protein, sheet PBMcomplexome, lower sub-table, 3.5 appears to be the floor for no detectable binding, read-out: affinity of PBM to TX1BP3 (pKd) (converted).
Setting [13] is: PBM motif of the named protein vs DLG1_2 PDZ, read-out: pKd values – domain-motif, DLG1_2 (converted).
[14] abbreviates: PBM motif of the named protein vs DLG1_1 PDZ, read-out: pKd values – domain-motif, DLG1_1 (converted).

SCRIB_1 PDZ, sequence (Q14160 728-815 limits assumed): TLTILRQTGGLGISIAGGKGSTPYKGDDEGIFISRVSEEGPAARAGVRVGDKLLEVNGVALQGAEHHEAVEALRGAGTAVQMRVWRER

With `CC(C)C[C@H](NC(=O)[C@H](CC(=O)O)NC(=O)[C@@H](NC(=O)[C@H](CC(=O)O)NC(=O)[C@H](Cc1ccccc1)NC(=O)[C@H](Cc1c[nH]c2ccccc12)NC(=O)[C@H](C)NC(=O)[C@H](CC(C)C)NC(=O)[C@H](CCC(N)=O)NC(=O)[C@@H](N)CC(N)=O)[C@@H](C)O)C(=O)O` [CTNNB1], the Kd on SNX27 PDZ is 12.3 µM; on SCRIB_1 PDZ (setting [5]), 13.8 µM; on SCRIB2 PDZ (setting [6]), 269 µM; at TX1BP3 PDZ (setting [7]), 1.02 µM.

On to GYDWGPATDL [TJP3/ZO3], for which the Kd was 229 µM at SNX27 PDZ (setting [8]); 174 µM on SCRIB_1 PDZ (setting [9]); 245 µM at DLG1_2 PDZ (setting [10]); 166 µM on SCRIB2 PDZ (setting [11]); 40.7 µM on TX1BP3 PDZ (setting [12]).

In the case of HPV82-E6 ({Biotin-ttds″}-PPRQRSETQV), the “Difference log2” value in the test on LIN7C [1] worked out at 5.109; in the test on MAGI1, 5.746; in the test with DLG1, 8.838; in the test on SCRIB [2], 7.318; in the test with LGALS7 it was 4.513; in the test on SCRIB [3], 7.349. Further, the “Difference log2” value in the test with CPVL came out at 3.939; in the test with KRT83, 3.605; in the test with MPP7, 3.556; in the test on LIN7C [4], 7.066. Also, the Ratio bait/biot in the test with LIN7C [1] was determined as 34.5003; in the test on MAGI1, 53.6695; in the test on DLG1, 457.64; in the test with SCRIB [2], 159.61; in the test on LGALS7, 22.8362; in the test on SCRIB [3] it was 163.074. Moreover, the “Ratio bait/biot” value in the test with CPVL is recorded as 15.3339; in the test on KRT83, 12.1643; with MPP7, 11.7654; with LIN7C [4], 134.006.

As for IKAIVDLTGL [TRAF2], the Kd on SNX27 PDZ (setting [8]) was 309 µM.

Take KIEDVEITLV [FCHSD2]: the Kd on SNX27 PDZ was 9.77 µM; at SCRIB_1 PDZ (setting [5]) it was 158 µM; on DLG1_2 PDZ (setting [13]), 50.1 µM; at DLG1_1 PDZ (setting [14]), 162 µM; at TX1BP3 PDZ (setting [7]), 105 µM.

As to KQVVPFSSSV [GDA], the Kd at SNX27 PDZ is 295 µM; on SCRIB_1 PDZ (setting [5]), 309 µM; on DLG1_2 PDZ (setting [13]), 41.7 µM; on DLG1_1 PDZ (setting [14]), 129 µM; on TX1BP3 PDZ (setting [7]) it was 49 µM.

Take LCALPKVTTV [AGMAT]: the Kd was 37.2 µM on SNX27 PDZ; 40.7 µM at SCRIB_1 PDZ (setting [5]); 1.35 µM on DLG1_2 PDZ (setting [13]); 10.7 µM at DLG1_1 PDZ (setting [14]); 85.1 µM on TX1BP3 PDZ (setting [7]).

With LESTTVGTSV [KARS1], the Kd on SNX27 PDZ is 35.5 µM; at SCRIB_1 PDZ (setting [5]), 155 µM; on DLG1_2 PDZ (setting [13]), 45.7 µM; on DLG1_1 PDZ (setting [14]), 53.7 µM; on SCRIB2 PDZ (setting [6]), 34.7 µM; at TX1BP3 PDZ (setting [7]) it was 251 µM.

PELESKESVL [SLC1A4]: the Kd was 3.72 µM at SNX27 PDZ; 66.1 µM at SCRIB_1 PDZ (setting [5]); 91.2 µM on DLG1_2 PDZ (setting [13]); 309 µM at DLG1_1 PDZ (setting [14]); 79.4 µM on TX1BP3 PDZ (setting [7]).

On to PKRPFVESNV [TANC2], for which the Kd at SNX27 PDZ (setting [8]) was 15.8 µM; on SCRIB_1 PDZ (setting [9]) it was 17.8 µM; at DLG1_2 PDZ (setting [10]), 22.4 µM; at DLG1_1 PDZ (holdup affinity of the PBM peptide of the named protein, sheet PBMcomplexome, lower sub-table, 3.5 appears to be the floor for no detectable binding, read-out: affinity of PBM to DLG1_1 (pKd) (converted)) it was 49 µM; at SCRIB2 PDZ (setting [11]) it was 25.7 µM; on TX1BP3 PDZ (setting [12]), 1.26 µM.

For the compound PKRSFIESNV [TANC1], the Kd at SNX27 PDZ was 3.09 µM; at SCRIB_1 PDZ (setting [5]) it was 6.31 µM; at DLG1_2 PDZ (setting [13]), 11 µM; at DLG1_1 PDZ (setting [14]), 20.4 µM; at SCRIB2 PDZ (setting [6]), 13.2 µM; on TX1BP3 PDZ (setting [7]) it was 1.91 µM.

Consider PRVKPQRSKV [PPP1R13L], for which the Kd at TX1BP3 PDZ (setting [7]) is 151 µM.

TESNLQTSSC [CGN] gave a Kd on SNX27 PDZ of 22.4 µM.

Source of the values: publication PMC9482650, “Quantitative fragmentomics allow affinity mapping of interactomes” (Nature Communications, 2022).
